Test results from patent publication US20070117857A1, “Substituted 3-amido-tetrahydro-indazolyl cannabinoid modulators” (priority 2005, published 2007).

Assays:
human CB1 receptor [1] = biological target: T1, human CB1 receptor (Homo sapiens, UniProt P21554); test: Functional cell-based assay, CB1 receptor mediated change in CRE β-gal expression; parameters: expressed in transfected cells; host or cells: SK-N-MC cells; conditions: SK-N-MC cells with CRE β-gal and human CB1; forskolin treated; β-galactosidase activity; read-out: EC50 value for functional activity as a CB1 receptor functional inverse agonist
Source text: The CB1 and CB2.receptors are G-protein coupled receptors (GPCR) that influence cell function via the Gi-protein. These receptors modulate the activity of intracellular adenylate cyclase, which in turn produces the intracellular signal messenger cyclic-AMP (cAMP).
At baseline, or during non-ligand bound conditions, these receptors are constitutively active and tonically suppress adenylate cyclase activity. The binding of an agonist causes further receptor activation and produces additional suppression of adenylate cyclase activity. The binding of an inverse agonist inhibits the constitutive activity of the receptors and results in an increase in adenylate cyclase activity.
Test compounds were evaluated in SK-N-MC cells which, using standard transfection procedures, were stably transfected with human cDNA for pcDNA3-CRE β-gal and pcDNA3 CB1 receptor (human) or pcDNA3 CB2 receptor (human). By expressing CRE β-gal, the cells produced β-galactosidase in response to CRE promoter activation by cAMP. Cells expressing CRE β-gal and either the human CB1 or CB2 receptor will produce less β-galactosidase when treated with a CB1/CB2 agonist and will produce more β-galactosidase when treated with a CB1/CB2 inverse agonist.
The cells were grown in 96-well plates under standard cell culture conditions at 37° C. in a 5% CO2 atmosphere. After 3 days, the media was removed and a test compound in media (wherein the media was supplemented with 2 mM L-glutamine, […] sodium pyruvate, 0.1% low fatty acid FBS (fetal bovine serum) and antibiotics) was added to the cell. The plates were incubated for 30 minutes at 37° C. and the plate cells were then treated with forskolin over a 4-6 hour period, then washed and lysed. The β-galactosidase activity was quantitated using commercially available kit reagents (Promega Corp. Madison, Wis.) and a Vmax Plate Reader (Molecular Devices, Inc).
For cells expressing CRE β-gal and the CB1 receptor, CB1 agonists reduced β-galactosidase activity in a dose-dependent manner and CB1 inverse agonists increased β-galactosidase activity in a dose-dependent manner.
The change in β-galactosidase activity was determined by setting a vehicle treated cell's activity value at 100% and expressing the β-galactosidase activity measured in a corresponding compound treated cell as a percent of the vehicle treated cell activity.
The EC50 value for functional activity for compounds tested was calculated by linear regression and was obtained from studies in which varying compound concentrations were used.

human CB2 receptor = biological target: T2, human CB2 receptor (Homo sapiens, UniProt P34972); test: Binding assay for CB2 agonists or inverse agonists ([3H]-CP-55,940 displacement); conditions: test concentration of 0.2 μM; membranes of SK-N-MC cells expressing human CB2
T2 construct: expressed in transfected cells; host or cells: SK-N-MC cells (semi-purified membrane pellet)
Method: (§1) The human CB1 and CB2 receptors were stably expressed in SK-N-MC cells transfected with pcDNA3 CB1 (human) or pcDNA3 CB-2 (human). The cells were grown in T-180 cell culture flasks under standard cell culture conditions at 37° C. in a 5% CO2 atmosphere. The cells were harvested by trysinization and homogenized in a homogenization buffer (10 mM Tris, 0.2 mM MgCl2, 5 mM KCl, with protease inhibitors aprotinin, leupeptin, pepstatin A and bacitracin) and centrifuged (2000 g). The supernatant was then centrifuged in 2M sucrose (31,300 g) to produce a semi-purified membrane pellet. The pellet was resuspended in homogenization and stored at −80° C.
(§2) On the day of the assay, the pellet was thawed on ice and diluted in assay buffer (50 mM Tris-HCl, 5 mM MgCl2, 2.5 mM EDTA, 0.5 mg/mL fatty acid free bovine serum albumin, pH 7.5). […] Non-specific binding was measured in wells containing WIN 55,212 (10 uM). […] The Unifilter plate was dried, a scintillation cocktail was added to each well and the counts representing binding were quantitated in a TopCount scintillation counter.
(§3) For compounds tested, an IC50 binding value was obtained from percent inhibition studies in which various test concentrations were used. The binding value was calculated by linear regression. […]

human CB1 receptor [2] = biological target: T1, human CB1 receptor; test: Binding assay for CB1 agonists or inverse agonists ([3H]-CP-55,940 displacement); parameters: expressed in transfected cells; host or cells: SK-N-MC cells (semi-purified membrane pellet); conditions: test concentration of 0.2 μM; membranes of SK-N-MC cells expressing human CB1
Method: as §1, §2, §3

T1 sequence (P21554 whole entry): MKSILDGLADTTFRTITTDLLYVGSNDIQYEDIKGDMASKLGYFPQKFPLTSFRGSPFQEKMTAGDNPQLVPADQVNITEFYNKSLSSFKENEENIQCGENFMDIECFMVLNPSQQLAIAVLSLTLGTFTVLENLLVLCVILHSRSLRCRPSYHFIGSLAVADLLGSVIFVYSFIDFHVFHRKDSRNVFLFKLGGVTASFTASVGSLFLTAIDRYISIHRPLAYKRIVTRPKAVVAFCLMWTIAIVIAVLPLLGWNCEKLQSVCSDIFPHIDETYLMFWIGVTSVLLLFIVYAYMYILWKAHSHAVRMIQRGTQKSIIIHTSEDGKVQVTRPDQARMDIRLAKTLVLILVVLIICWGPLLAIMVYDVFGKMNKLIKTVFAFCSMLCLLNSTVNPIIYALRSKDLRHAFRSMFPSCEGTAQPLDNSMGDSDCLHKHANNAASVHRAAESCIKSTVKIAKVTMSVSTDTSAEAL
T2 sequence (P34972 whole entry): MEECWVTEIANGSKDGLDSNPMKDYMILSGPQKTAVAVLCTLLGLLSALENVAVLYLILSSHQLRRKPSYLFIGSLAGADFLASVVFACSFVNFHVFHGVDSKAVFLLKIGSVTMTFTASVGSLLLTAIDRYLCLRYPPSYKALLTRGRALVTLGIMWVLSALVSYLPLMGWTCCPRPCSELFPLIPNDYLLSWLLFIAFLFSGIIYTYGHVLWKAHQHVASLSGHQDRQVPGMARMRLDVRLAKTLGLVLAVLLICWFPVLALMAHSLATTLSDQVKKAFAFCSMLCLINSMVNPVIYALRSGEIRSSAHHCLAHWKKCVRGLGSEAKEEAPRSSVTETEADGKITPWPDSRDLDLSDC

Structure (SMILES) | EC50 (human CB1 receptor [1]) [nM] | CB2 binding (human CB2 receptor) [%] | CB1 binding (human CB1 receptor [2]) [%]
O=C(NN1CCC(O)CC1)c1nn(-c2ccc(Cl)cc2Cl)c2c1CCC/C2=C\c1ccc(F)cc1 [Compound 1, (6E)-1-(2,4-dichloro-phenyl)-7-(4-fluoro-benzylidene)-4,5,6,7-tetrahydro-1H-indazole-3-carboxylic acid (4-hydroxy-piperidin-1-yl)-amide] | 40 | – | –
COC1CCN(NC(=O)c2nn(-c3ccc(Cl)cc3Cl)c3c2CCC/C3=C\c2ccc(F)cc2)CC1 [Compound 2, (7E)-1-(2,4-dichloro-phenyl)-7-(4-fluoro-benzylidene)-4,5,6,7-tetrahydro-1H-indazole-3-carboxylic acid(4-methoxy-piperidin-1-yl)-amide] | 4 | – | –
O=C(NN1CCCCC1=O)c1nn(-c2ccc(Cl)cc2Cl)c2c1CCC/C2=C\c1ccc(F)cc1 [Compound 3, (7E)-1-(2,4-dichloro-phenyl)-7-(4-fluoro-benzylidene)-4,5,6,7-tetrahydro-1H-indazole-3-carboxylic acid(2-oxo-piperidin-1-yl)-amide] | – | 28 | 19
C[N+]1(NC(=O)c2nn(-c3ccc(Cl)cc3Cl)c3c2CCC/C3=C\c2ccc(F)cc2)CCCCC1 [Compound 4, (7E)-1-{[1-(2,4-dichloro-phenyl)-7-(4-fluoro-benzylidene)-4,5,6,7-tetrahydro-1H-indazole-3-carbonyl]-amino}-1-methyl-piperidinium] | 7.2 | – | –
O=C(NN1C=CCCC1)c1nn(-c2ccc(Cl)cc2Cl)c2c1CCC/C2=C\c1ccc(F)cc1 [Compound 5, (7E)-1-(2,4-dichloro-phenyl)-7-(4-fluoro-benzylidene)-4,5,6,7-tetrahydro-1H-indazole-3-carboxylic acid(3,4-dihydro-2H-pyridin-1-yl)-amide] | 1.4 | – | –
